Data as given in patent US11975017B2, “Compositions comprising an RNA polymerase inhibitor and cyclodextrin for treating viral infections” (priority 2017, dated 2024).
Values after ≈ are worked out from the molar mass of the structure shown.

Key:
physchem = conditions: water
[1] = type: physicochemical; conditions: between pH 1 and 10; FIG. 2
Procedure: The stability of Compound 1 was determined by monitoring the concentration of Compound 1 in solution by liquid chromatography at various storage conditions. […] The solubility of Compound 1 between pH 1 and 10 was determined by quantitatively measuring the concentration of Compound 1 in solution at various pH conditions by liquid chromatography.

With `CCC(CC)COC(=O)[C@H](C)N[P@](=O)(OC[C@H]1O[C@@](C#N)(c2ccc3c(N)ncnn23)[C@H](O)[C@@H]1O)Oc1ccccc1` [Compound 1, (S)-2-ethylbutyl 2-(((S)-(((2R,3S,4R,5R)-5-(4-aminopyrrolo[2,1-f][1,2,4]triazin-7-yl)-5-cyano-3,4-dihydroxytetrahydrofuran-2-yl)methoxy)(phenoxy)phosphoryl)amino)propanoate] the solubility (physchem) was about 30 µg/mL (≈ 49.8 µM) and the “solubility as a function of pH” value [1] was “increases at or below pH 4”.
